Experimental data from patent US6605424B1, “Method of detecting inhibitors of agonist-specific desensitization” (Duke University, priority 1989, dated 2003).
Like-named read-outs stand apart in the source and are kept apart here. No end group written: not given here.

Assays:
[1] = test system: β2ARs in permeabilized A431 cells; assay: Phosphorylation of β2ARs in permeabilized A431 cells; assay type: cell-based, human; conditions: 1 μM isoproterenol, absence of heparin
Experimental: FIG. 8. Phosphorylation of β2ARs in permeabilized A431 cells. […] FIG. 8A: Autoradiogram obtained after a 10-day exposure at −70° C. FIG. 8B: Transverse densitometric scan of the autoradiogram.
β2ARs in permeabilized A431 cells were phosphorylated as follows. Permeabilized cells (4×10^8) in 10 ml of KG-A buffer containing 1 mCi (1 Ci=37 GBq) of [γ-^32P]ATP were incubated with or without 1 μM (−)-isoproterenol (and other compounds as indicated) for 10 min at 37° C. All buffers used in these experiments contained 5 μg of soybean tryspin inhibitor, 5 μg of leupeptin, and 10 μg of benzamidine per ml and 0.1 mM phenylmethylsulfonyl fluoride. […] After three identical washing steps, crude membranes were prepared as above.
Aliquots of the samples (≈60 fmol of β2ARs) were desalted over Sephadex G-50 and incubated for 2 hr at 20° C. with 200 pM of the ligand with or without 10 μM alprenolol. Free ligand was removed by desalting as above, and the samples were irradiated with UV light for 3 min. The samples were loaded on the same gel as the samples described above.

[2] = test system: adenylyl cyclase in membranes of A431 cells; assay: cells; conditions: Homo sapiens
Experimental: FIG. 5. […] Cells were incubated for 10 min with (desensitized) (●) or without (control) (◯) 1 μM (−)-isoproterenol as detailed. Adenylyl cyclase activities of membranes prepared from the cells were measured in the presence of various concentrations of (−)-isoproterenol and were expressed as percent of the activity in the presence of 10 mM NaF. […] Data are means±SEM of three independent experiments.
Desensitization of β2ARs in A431 cells was effected as follows. Permeabilized cells in KG-A buffer (or, for controls, intact cells in PBS) were incubated with or without 1 μM (−)-isoproterenol for 10 min or the indicated times (4×10^7 cells per ml). The incubation was terminated by addition of 10 vol of ice-cold KG buffer (or PBS, respectively), followed by centrifugation at 1000×g for 5 min. After three identical washes, cells were disrupted with a Polytron homogenizer in 5 mM Tris-HCl, pH 7.4/2 mM EDTA. Crude membranes were prepared by spinning the supernatant after low-speed centrifugation (1000×g for 5 min) at 40,000×g for 20 min.
Adenylyl cyclase activity in the membranes was determined as described by Salomon et al (Anal. Biochem. (1974) 58:541-548). The free Mg^2+ concentration in the assay was 4 mM.
Concentration-response curves were analyzed by nonlinear curve-fitting to the Hill equation as described (Lohse et al (1986) Mol. Pharmacol. 30:403-409). Adenylyl cyclase activity was expressed as the percentage of the activity in the presence of 10 mM NaF. Since NaF stimulates adenylyl cyclase via the stimulatory guanine nucleotide binding protein, Gs, this normalizes for effects that occur at the level of Gs or the cyclase (i.e., which effects represent heterologous desensitization). Desensitization was assessed by measuring the loss of maximal stimulation by isoproterenol [determined with 10 μM (−)-isoproterenol] and was calculated as [1−stimulation (desensitized)/stimulation (control)]×100. For example, a decrease from 60% to 40% of NaF-stimulated activity corresponds to a desensitization of [1−(40/60)]×100=33%.

[3] = test system: β2ARs in permeabilized A431 cells; assay: Desensitization of β2ARs in permeabilized A431 cells; assay type: cell-based, human
Experimental: Permeabilization of cells was accomplished as follows. Human epidermoid carcinoma A431 cells were grown to about 95% confluence in Dulbecco's modified Eagle's medium supplemented with 10% fetal calf serum. Cells were harvested with collagenase, washed three times with calcium-free phosphate-buffered saline (PBS), then washed twice in 150 mM potassium glutamate/10 mM Hepes/5 mM EGTA/7 mM MgCl2, pH 7.1 (KG buffer), and finally resuspended in KG buffer supplemented with 5 mM glucose and 2 mM ATP (KG-A buffer) at a density of 4×10^7 cells per ml.
At 4×10^7 cells per ml, about 0.015% digitonin was necessary to achieve permeabilization of >95% cells as assessed by staining with trypan blue. In all experiments, digitonin was added stepwise until >95% of the cells were trypan blue positive.

βAR kinase [4] = biological target: T1, βAR kinase (Bos taurus, UniProt P21146); assay: Inhibition of β2AR phosphorylation by βAR kinase by synthetic peptides (Example III); assay type: biochemical, bovine; conditions: β2AR as substrate; read-out: IC50 (μM), first intracellular loop peptides as inhibitors of βAR kinase
T1 construct: βAR kinase was purified from bovine cerebral cortex; from tissue; host or cells: bovine cerebral cortex
T1 sequence (P21146 1-689): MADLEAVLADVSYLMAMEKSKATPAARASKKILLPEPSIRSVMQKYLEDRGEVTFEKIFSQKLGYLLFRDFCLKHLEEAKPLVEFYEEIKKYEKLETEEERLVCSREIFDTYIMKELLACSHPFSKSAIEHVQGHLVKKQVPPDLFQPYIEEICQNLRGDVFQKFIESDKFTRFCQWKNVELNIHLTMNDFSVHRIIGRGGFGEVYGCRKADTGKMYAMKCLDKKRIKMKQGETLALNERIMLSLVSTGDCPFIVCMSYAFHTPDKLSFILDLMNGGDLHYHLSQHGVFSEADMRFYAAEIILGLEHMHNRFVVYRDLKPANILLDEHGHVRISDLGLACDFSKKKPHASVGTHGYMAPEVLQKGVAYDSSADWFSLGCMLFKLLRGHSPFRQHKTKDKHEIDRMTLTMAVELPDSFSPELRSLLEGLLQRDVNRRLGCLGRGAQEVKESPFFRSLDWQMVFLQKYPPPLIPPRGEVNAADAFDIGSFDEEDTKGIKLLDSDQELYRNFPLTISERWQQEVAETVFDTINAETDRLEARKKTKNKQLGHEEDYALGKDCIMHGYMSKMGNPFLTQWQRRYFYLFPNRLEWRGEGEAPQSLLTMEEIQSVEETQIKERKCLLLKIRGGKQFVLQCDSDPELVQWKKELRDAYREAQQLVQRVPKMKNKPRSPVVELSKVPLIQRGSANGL
Experimental: FIG. 13. Inhibition of β2AR phosphorylation by synthetic peptides. Reconstituted β2AR (˜0.4 pmol) was incubated for 30 min at 30° with purified βAR kinase (˜30 ng) in the presence of 50 mM Tris-HCl, pH 7.5, 2 mM EDTA, 10 mM NaCl, 5 mM MgCl2, 5 mM sodium phosphate, 50 μM (−)-isoproterenol and 0.10 mM [γ^32P]ATP (2.0 cpm/fmol). Synthetic β2AR peptides were varied from 0 to 1 mM and included CI (Δ), CII (▴), CIII-2 (◯) and CT-1 (●). Reactions were stopped by the addition of […]. ^32P-labeled receptor was determined by cutting and counting the dried gel following autoradiography.
The β2-adrenergic receptor from hamster lung was purified to apparent homogeneity by sequential affinity and high performance liquid chromatography as described (Benovic et al (1984) Biochemistry 23:4510-4518). The purified receptor was reinserted into phosphatidylcholine vesicles as previously described (Cerione et al (1983) Nature 306:562-566). The protein-lipid pellets were resuspended in 20 mM Tris-HCl, pH 7.2, 2 mM EDTA and used as a substrate for the βAR kinase.
βAR kinase was purified from bovine cerebral cortex by modification of a previously described procedure (Benovic et al (1987) J. Biol. Chem. 262:9026-9032). Briefly, 250 g of bovine cortex was homogenized and the resulting high speed supernatant fraction was precipitated with 13-26% ammonium sulfate. This material was initially chromatographed on an Ultrogel AcA34 column equilibrated with 5 mM Tris-HCl, pH 7.5, 2 mM EDTA, 5 μg/ml leupeptin, 5 μg/ml pepstatin, 15 μg/ml benzamidine, 0.2 mM phenylmethyl sulfonyl fluoride (buffer A). The peak activity was diluted 1:1 with buffer A containing 0.02% triton X-100 and applied to a DEAE Sephacel column. Elution was accomplished with a 0-80 mM NaCl gradient in buffer A containing triton X-100. The peak activity was then applied directly to a CM Fractogel column and eluted with a 0-100 mM NaCl gradient in buffer A containing triton X-100. The purified kinase was stored at 4° C.
The inhibition of substrate phosphorylation by βAR kinase in the presence of synthetic peptides was assayed as follows. Reconstituted βAR (0.2-1 pmol/inclubation) was incubated with βAR kinase (10-30 ng) in a buffer containing 50 mM Tris-HCl, pH 7.5, 2 mM EDTA, 10 mM NaCl, 5 mM MgCl2, 5 mM sodium phosphate, 50 μM (−)-isoproterenol, 0.10 mM [γ-^32P]ATP (1-3 cpm/fmol) at 30° C. for 30 min. Synthetic β2AR peptides were varied in concentration from 0 to 2 mM. Reactions were quenched by the addition of SDS sample buffer followed by gel electrophoresis. In some experiments urea treated rod outer segments (Wilden et al (1982) Biochemistry 21:3014-3022; Shichi et al (1978) J. Biol. Chem. 253:7040-7046) were used as the substrate for βAR kinase. To further define the specificity of the peptide inhibition, phosvitin, casein (see Example I) and the synthetic peptides CT-2 and CT-3 were used as substrates for βAR kinase.
SDS polyacrylamide gel electrophoresis was performed by the method of Laemmli (Nature (1970) 227:[…]) using 10 or 15% homogeneous slab gels. SDS sample buffer contained 8% SDS, 10% glycerol, 5% β-mercaptoethanol, 25 mM Tris-HCl, pH 6.5 and 0.003% bromphenol blue. SDS urea polyacrylamide gel electrophoresis was carried out using 6.5 M urea, 0.1% SDS, 100 mM H3PO4, pH 6.8 with Tris-HCl and 9% acrylamide (Swank et al (1971) Anal. Biochem. 39:462). SDS urea sample buffer contained 1% SDS, 8M urea, 10 mM H3PO4, pH 6.8 with Tris-HCl, 1% β-mercaptoethanol and 0.003% bromphenol blue.

βAR kinase [5] = biological target: T1, βAR kinase; assay: Phosphorylation of purified reconstituted β2ARs by purified βAR kinase (Example II); assay type: biochemical, bovine; conditions: 100 μM
Experimental: FIG. 7. […] (Inset) Relevant section of a representative autoradiogram. Data are means±SEM of three independent experiments. […] Desensitization was measured as the percent loss of stimulation by 10 μM (−)-isoproterenol of adenylyl cyclase activity in membranes. […] Data are means±SEM of four independent experiments.
Purified β2ARs were inserted into phosphatidylcholine vesicles by chromatography on Extracti-gel, followed by polyethylene glycol treatment and centrifugation at 280,000×g for 90 min (Cerione et al (1984) Biochemistry 23:4519-4525). Phosphorylation of the reconstituted receptors by purified βAR kinase was done in the presence of 50 μM (−)-isoproterenol as described (Benovic et al (1987) J. Biol. Chem. 262:9026-9032). Subsequently, the samples were subjected to sodium dodecyl sulfate polyacrylamide gel electrophoresis on 10% gels (Laemmli (1970) Nature 227:680-685). The phosphorylated β2ARs were visualized by autoradiography, and the corresponding bands were cut out and their content of ^32P quantified.

[6] = test system: β2ARs in intact A431 cells; assay: Desensitization of β2ARs in intact A431 cells; assay type: cell-based, human; conditions: data not shown

| IC50 (βAR kinase [4]) | inhibition at 100 µM (βAR kinase [5]) | Compound | increase in the phosphorylation of the β2ARs [1] | Emax ([2]; A-431, 10 min, read-out: desensitization (loss of maximal stimulation), 1 μM isoproterenol 10 min 37° C., both intact and permeabilized cells) | EC50 ([2]; A-431, read-out: EC50, adenylyl cyclase stimulation, control intact cells) | EC50 ([2]; A-431, read-out: EC50, adenylyl cyclase stimulation, control permeabilized cells) | EC50 ([2]; A-431, read-out: EC50, adenylyl cyclase stimulation, desensitized intact cells) | EC50 ([2]; A-431, read-out: EC50, adenylyl cyclase stimulation, desensitized permeabilized cells) | Emax ([2]; A-431, read-out: Emax, maximal stimulation over basal in percent of activity with 10 mM NaF, control intact cells) | Emax ([2]; A-431, read-out: Emax, maximal stimulation over basal in percent of activity with 10 mM NaF, control permeabilized cells) | Emax ([2]; A-431, read-out: Emax, maximal stimulation over basal in percent of activity with 10 mM NaF, desensitized intact cells) | Emax ([2]; A-431, read-out: Emax, maximal stimulation over basal in percent of activity with 10 mM NaF, desensitized permeabilized cells) | Inhibition of Desensitization, % ([3]; 100 μM) | effect on time course of desensitization ([3]; 100 μM peptide, 1 μM (−)-isoproterenol) | effect on desensitization in intact cells [6] |
| --- | --- | --- | --- | --- | --- | --- | --- | --- | --- | --- | --- | --- | --- | --- | --- |
| – | – | CC(C)NC[C@H](O)c1ccc(O)c(O)c1 [isoproterenol, (−)-isoproterenol] | 5 fold | ~30% | 200 nM | 130 nM | 300 nM | 190 nM | 56% | 62% | 40% | 43% | – | – | – |
| 62 µM | 80 ± 13% | AIAKFERLQTVTNYF [β2AR-(57-71)] | – | – | – | – | – | – | – | – | – | – | 52 ± 12% | markedly slowed the rate of desensitization | Neither compound affected desensitization |
